Measured values published in PubChem BioAssay (NCI).
Values joined by “and” are separate entries in the source; they are usually repeats but may differ in a detail not shown here. Equal values may be shown once.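 Following 48 hours of exposure in 96-well plates, responses at five concentrations were used to interpolate endpoints linearly. GI50: concentration for 50% inhibition of growth. Definition used: TGI = concentration required for complete inhibition of growth.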

Experiments:
Test in all cases: NCI anticancer screen, dose series, 48 h
[1] = system: 786-0 renal
[2] = system: UO-31 renal
[3] = system: SK-OV-3 ovarian
[4] = system: OVCAR-5 ovarian
[5] = system: NCI-H460 lung
[6] = system: NCI-H226 lung
[7] = system: NCI/ADR-RES ovarian
[8] = system: MOLT-4 leukemia
[9] = system: RPMI-8226 leukemia
[10] = system: TK-10 renal

Compound: CN(Cc1cnc2nc(N)nc(N)c2n1)c1c(Cl)cc(C(=O)NC(CCC(=O)O)C(=O)O)cc1Cl (stereo not drawn)
- GI50 [1]: < 0.01 µM
- TGI [1]: > 100 µM
- GI50 [2]: < 0.01 µM
- TGI [2]: > 100 µM
- GI50 [3]: 0.807 µM
- TGI [3]: > 100 µM
- GI50 [4]: 1.76 µM
- TGI [4]: > 100 µM
- GI50 [5]: < 0.01 µM
- TGI [5]: > 100 µM
- GI50 [6]: 0.0745 µM
- TGI [6]: > 100 µM
- GI50 [7]: < 0.01 µM
- TGI [7]: > 100 µM
- GI50 [8]: < 0.0201 µM
- TGI [8]: > 100 µM
- GI50 [9]: < 0.01 µM
- TGI [9]: > 100 µM
- GI50 [10]: 1.88 µM
- TGI [10]: > 100 µM

Compound: CC(=O)c1nc(-c2ccc(C[C@@H](CNC(=O)CN(C)C)NC(=O)c3ccc(OC(C)C)c(Cl)c3)cc2)cn1C
- GI50 [1]: 0.0851 µM
- TGI [1]: 17.1 µM
- GI50 [2]: 0.723 µM
- TGI [2]: 17.6 µM
- GI50 [3]: 0.0346 µM
- TGI [3]: 16.1 µM
- GI50 [4]: 0.0618 µM
- TGI [4]: 18.6 µM
- GI50 [5]: 0.0291 µM
- TGI [5]: 11.8 µM
- GI50 [6]: 12.6 µM
- TGI [6]: 33.9 µM
- GI50 [7]: 0.511 µM
- TGI [7]: 18.3 µM
- GI50 [8]: 0.0406 µM
- TGI [8]: 15 µM
- GI50 [9]: 0.0413 µM
- TGI [9]: 23.2 µM
- GI50 [10]: 12.1 µM
- TGI [10]: 25 µM

Compound: CCS(=O)(=O)c1cccc(-c2cc(C(=O)NC3CCN(C)CC3)c(C)c3[nH]c4ncc(C)cc4c23)c1
- GI50 [1]: 1.68 µM and 1.32 µM
- TGI [1]: > 8.05 µM and 4.7 µM
- GI50 [2]: > 5.3 µM and 6.65 µM
- TGI [2]: > 10 µM and 26.4 µM
- GI50 [3]: 0.624 µM and 0.771 µM
- TGI [3]: 4.31 µM and 7.31 µM
- GI50 [4]: 0.463 µM and 0.34 µM
- TGI [4]: > 9.67 µM and 11.4 µM
- GI50 [5]: 0.201 µM and 0.0843 µM
- TGI [5]: 4.96 µM and 1.64 µM
- GI50 [6]: 0.372 µM and 0.714 µM
- TGI [6]: 3.83 µM and 5.2 µM
- GI50 [7]: 44.9 µM
- TGI [7]: > 100 µM
- GI50 [8]: 0.316 µM and 0.237 µM
- TGI [8]: > 6.38 µM and 3.14 µM
- GI50 [9]: 0.736 µM and 0.929 µM
- TGI [9]: > 7.51 µM and 9.07 µM
- GI50 [10]: 1.71 µM and 1.44 µM
- TGI [10]: > 8.01 µM and 6.7 µM

Compound: Cc1c(-c2ccc(-c3ccccc3F)cc2)nc2ccc(F)cc2c1C(=O)O
- GI50 [1]: 0.5 µM
- TGI [1]: 97.7 µM and 291 µM
- GI50 [2]: 1.85 µM and 2.65 µM
- TGI [2]: 78.9 µM and 105 µM
- GI50 [3]: > 41.2 µM
- TGI [3]: 86.5 µM and 603 µM
- TGI [4]: 209 µM and 371 µM
- GI50 [5]: 0.349 µM and 0.5 µM
- TGI [5]: 80.9 µM and 174 µM
- GI50 [6]: 38.3 µM and 29.4 µM
- TGI [6]: 216 µM and 209 µM
- GI50 [7]: 8.96 µM and 17.2 µM
- TGI [7]: 170 µM and 377 µM
- GI50 [8]: 0.5 µM
- TGI [8]: 66.7 µM and 71.7 µM and 294 µM
- GI50 [9]: 0.811 µM
- GI50 [10]: 62.7 µM
- TGI [10]: 208 µM and 471 µM

Compound: C[C@]12CCC3c4ccc(O)cc4CCC3C1CC[C@@H]2NC(=O)/C=C/c1ccc(O)c(O)c1 (stereo partly drawn)
- GI50 [1]: 10.4 µM
- TGI [1]: 29.2 µM
- GI50 [2]: 11.9 µM
- TGI [2]: 47 µM
- GI50 [3]: 14.8 µM
- TGI [3]: 31.6 µM
- GI50 [4]: 18.1 µM
- TGI [4]: 35.9 µM
- GI50 [5]: 11.9 µM
- TGI [5]: 35.3 µM
- GI50 [6]: 12.3 µM
- TGI [6]: 37.9 µM
- GI50 [7]: 16.2 µM
- TGI [7]: 41.7 µM
- GI50 [8]: 3.34 µM
- TGI [8]: 24 µM
- GI50 [9]: 4.39 µM
- TGI [9]: 24.8 µM
- GI50 [10]: 13.8 µM
- TGI [10]: 50.6 µM

Compound: CC(C)(O)c1cc(Nc2cc(Oc3cn(C4CC4)nc3C3CCOCC3)ccn2)ccn1
- GI50 [1]: 53.1 µM
- TGI [1]: > 100 µM
- GI50 [2]: 54 µM
- TGI [2]: > 100 µM
- GI50 [3]: > 100 µM
- TGI [3]: > 100 µM
- GI50 [4]: > 100 µM
- TGI [4]: > 100 µM
- GI50 [5]: > 100 µM
- TGI [5]: > 100 µM
- GI50 [6]: > 100 µM
- TGI [6]: > 100 µM
- GI50 [7]: > 100 µM
- TGI [7]: > 100 µM
- GI50 [8]: 91.7 µM
- TGI [8]: > 100 µM
- GI50 [9]: 33.7 µM
- TGI [9]: > 100 µM
- GI50 [10]: 69.8 µM
- TGI [10]: > 100 µM

Compound: CSCc1ncc(-c2ccc(C(F)(F)F)cc2)c(NC2CCCCCC2)n1
- GI50 [1]: > 10 µM
- TGI [1]: > 10 µM
- GI50 [2]: > 10 µM
- TGI [2]: > 10 µM
- GI50 [3]: > 10 µM
- TGI [3]: > 10 µM
- GI50 [4]: > 10 µM
- TGI [4]: > 10 µM
- GI50 [5]: > 10 µM
- TGI [5]: > 10 µM
- GI50 [6]: > 10 µM
- TGI [6]: > 10 µM
- GI50 [7]: > 10 µM
- TGI [7]: > 10 µM
- GI50 [8]: > 10 µM
- TGI [8]: > 10 µM
- GI50 [9]: > 10 µM
- TGI [9]: > 10 µM
- GI50 [10]: > 10 µM
- TGI [10]: > 10 µM

Compound: C/C(=N\NC(=S)N1CCCC1)c1ccccn1
- GI50 [1]: 0.047 µM
- TGI [1]: 11 µM
- GI50 [2]: < 0.011 µM
- TGI [2]: 3.18 µM
- GI50 [3]: 0.0232 µM
- TGI [3]: 11.2 µM
- GI50 [4]: 0.0763 µM
- TGI [4]: 14.8 µM
- GI50 [5]: < 0.01 µM
- TGI [5]: 7.06 µM
- GI50 [6]: < 0.01 µM
- TGI [6]: 2.85 µM
- GI50 [7]: < 0.01 µM
- TGI [7]: 10.6 µM
- GI50 [8]: < 0.0115 µM
- TGI [8]: 11.6 µM
- GI50 [9]: < 0.01 µM
- TGI [9]: 15.6 µM
- GI50 [10]: 0.105 µM
- TGI [10]: 13.7 µM

Compound: COc1ccc2c(CN3CCCC[C@H]3O)cc3cc4c(cc3c2c1)OCO4
- GI50 [1]: 0.503 µM
- TGI [1]: 6.28 µM
- GI50 [2]: 0.31 µM
- TGI [2]: 5.67 µM
- GI50 [3]: 0.275 µM
- TGI [3]: 0.961 µM
- GI50 [4]: 0.489 µM
- TGI [4]: 14.1 µM
- GI50 [5]: 0.295 µM
- TGI [5]: 10.4 µM
- GI50 [6]: 0.251 µM
- TGI [6]: 0.589 µM
- GI50 [7]: 0.435 µM
- TGI [7]: 6.94 µM
- GI50 [8]: 0.283 µM
- TGI [8]: 4.55 µM
- GI50 [9]: 0.298 µM
- TGI [9]: 1.32 µM
- GI50 [10]: 0.702 µM
- TGI [10]: 6.97 µM
